# Laboratory results from patent US5387614A, “Use of sigma receptor ligands as salivary gland stimulants” (University of Iowa Research Foundation, priority 1993, dated 1995).
# Assays:
# sigma-binding site = experiment: 3H-DTG radioligand saturation binding (Scatchard plot) in submaxillary gland membrane homogenate; parameters: species or system New Zealand white rabbits; conditions: single binding site; membrane homogenate of acini cells from rabbit submaxillary gland; 4° C., 60 min; spiperone 25 nM
# Description: In this procedure, New Zealand white rabbits were sacrificed using 1/2-1 ml of Beuthanasia-D Special (Schering Plough Animal Health, Keniworth, N.J.: 390 mg pentobarital sodium and 50 mg phenytoin sodium per ml) by injecting the preparation into the marginal ear vein. Whole submaxillary glands, free of blood, were dissected and either used immediately or frozen in cold 100 mM tris-HCl (pH 7.4) buffer. Glandular tissue was rinsed with cold 50 mM Tris-HCl (pH 7.4) followed by homogenization for 30 sec (Polytron, Brinkman Instr., setting 7). The homogenate was centrifuged at 800 rpm for 10 min at 4° C. to remove extraneous tissue. Then the supernatant was centrifuged at 75,000 Xg for 15 min at 4° C. (model L8-55, Preparative Ultracentrifuge, Beckman Instruments, Fullerton, Calif.). Following centrifugation, the pellet was homogenized again in 100 mM tris-HCl buffer and centrifuged at 75,000 Xg for 15 min. The resulting pellet containing the membrane fragments was suspended in Tris-HCl buffer to yield a concentration of 250 mg (wet wt) per mL. […]
# Spiperone (25 nM) was added to prevent binding to D2 dopamine or 5HT2 serotonin receptors. […] The filter, containing the precipitate, was transferred to a scintillation vial containing 1 mL of tissue solubilizer (Soluene 350, Packard Inst.) and 4 mL of scintillation fluid (Budget Solve , Fisher Scientific, Fair Lawn, N.J.) and counted (Beckman LS 3801). […]
# sigma receptors = experiment: Radioligand competition experiments in submaxillary gland membrane homogenate; assay type: binding, New Zealand white rabbits; conditions: radioligand 3H-DTG (5 nM); rabbit submaxillary gland membranes; 4° C., 60 minutes; spiperone 25 nM; mean ± spread; read-out: averaged IC50
# Description: In this procedure, New Zealand white rabbits were sacrificed using 1/2-1 ml of Beuthanasia-D Special (Schering Plough Animal Health, Keniworth, N.J.: 390 mg pentobarital sodium and 50 mg phenytoin sodium per ml) by injecting the preparation into the marginal ear vein. Whole submaxillary glands, free of blood, were dissected and either used immediately or frozen in cold 100 mM tris-HCl (pH 7.4) buffer. Glandular tissue was rinsed with cold 50 mM Tris-HCl (pH 7.4) followed by homogenization for 30 sec (Polytron, Brinkman Instr., setting 7). The homogenate was centrifuged at 800 rpm for 10 min at 4° C. to remove extraneous tissue. Then the supernatant was centrifuged at 75,000 Xg for 15 min at 4° C. (model L8-55, Preparative Ultracentrifuge, Beckman Instruments, Fullerton, Calif.). Following centrifugation, the pellet was homogenized again in 100 mM tris-HCl buffer and centrifuged at 75,000 Xg for 15 min. […]
# Spiperone (25 nM) was added to prevent binding to D2 dopamine, or 5HT2 serotonin receptors. […] The filter along with the adhering precipitate was transferred to a scintillation vial containing 1 mL of tissue solubilizer (Soluene 350, Packard Inst., Downers Grove, Ill.) and 4 mL of scintillation fluid (Budget Solve , Fisher Scientific, Fair Lawn, N.J.) and counted (Beckman LS 3801). […] Specific binding was determined by subtracting NSB from total binding. […]
# salivary secretion = experiment: Saliva flow observed after topical dosing of the rabbit eye; assay type: in vivo; conditions: rabbit eye dosed topically (use as dry eye syndrome treatment)
# Text: The observations of effective salivary stimulation actually occurred during use of the most preferred compound wherein N=2, and R and R" are methyl, as dry eye syndrome treatment. […] This led to further investigations of this and other compounds as a means of treating dry mouth associated with, for example, Sjogren's syndrome. The present compound for example could be formulated into a conventional lozenge for a topical application directly in the oral cavity to stimulate saliva flow. Such lozenges can either be made by dissolving the drug in water, adding powdered sugar, flavor and a gum (e.g., 7% powdered acacia) to give sufficient adhesiveness. This type of lozenge is harder than a conventional tablet, but dissolves slowly. The lozenge formulation is made by compressing the formula on a tablet press according to the art.
smiles,measurement,setting,value
Cc1ccccc1NC(=N)Nc1ccccc1C [3H-DTG],Kd,sigma-binding site,6 ± 1.2 nM
CN(Cc1cc(Br)cc(Br)c1N)C1CCCCC1 [bromhexine],IC50,sigma receptors,690 ± 276 nM
"CN(C)CCc1ccccc1 [most preferred compound, N,N-dimethyl-2-phenylethylamine]",saliva flow,salivary secretion,copious amounts of saliva flowed from about one half of the rabbits
